Experiments:
[1] = Antagonist activity at P2Y1 receptor in platelet-enriched human plasma assessed as 10 uM ADP-induced platelet aggregation preincubated for 1 min followed by ADP induction measured at 5 mins by aggregometric analysis
[2] = Antagonist activity at P2Y1 receptor in platelet-enriched human plasma assessed as 2.5 uM ADP-induced platelet aggregation preincubated for 1 min followed by ADP induction measured at 5 mins by aggregometric analysis

Compound | IC50 [1] | IC50 [2]
CC(C)(C)CN1CCC2(CC1)CN(c1ccccc1NC(=O)Nc1ccc(OC(F)(F)F)cc1)c1ccncc12 | > 40 µM | –
CC(C)(C)CN1CCC2(CC1)CN(c1ccccc1NC(=O)Nc1ccc(OC(F)(F)F)cc1)c1ncccc12 | > 40 µM | –
COCCN1CCC2(CC1)CN(c1ccccc1NC(=O)Nc1ccc(OC(F)(F)F)cc1)c1ccccc12 | – | 25.4 µM
CC(C)N1CCC2(CC1)CN(c1ccccc1NC(=O)Nc1ccc(OC(F)(F)F)cc1)c1ccccc12 | 29.2 µM | 4.7 µM
CC(C)NC(=O)N1CCC2(CC1)CN(c1ccccc1NC(=O)Nc1ccc(OC(F)(F)F)cc1)c1ccccc12 | – | > 10 µM
CN1CCN(c2ccccc2NC(=O)Nc2ccc(OC(F)(F)F)cc2)c2ccccc21 | – | > 10 µM
CC(C)CN1CCC2(CC1)CN(c1ccccc1NC(=O)Nc1ccc(OC(F)(F)F)cc1)c1ccccc12 | 8.8 µM | 2.2 µM
CC1(C)CN(c2ncccc2NC(=O)Nc2ccc(OC(F)(F)F)cc2)c2ccccc21 | – | > 10 µM
O=C(Nc1ccc(OC(F)(F)F)cc1)Nc1ccccc1N1CC2(CCN(Cc3ccccc3)CC2)c2ccccc21 | 18.6 µM | 3.3 µM
CC(C)(C)CN1CCC2(C1)CN(c1ccccc1NC(=O)Nc1ccc(OC(F)(F)F)cc1)c1ccccc12 (stereo not drawn) | 18.5 µM | –
CC1(C)CCN(c2ncccc2NC(=O)Nc2ccc(OC(F)(F)F)cc2)c2ccccc21 | – | 11.1 µM
CC(C)(C)CN1CCC2(CC1)CN(c1ccccc1NC(=O)Nc1ccc(OC(F)(F)F)cc1)c1cccnc12 | 15.1 µM | –
COC(=O)N1CCC2(CC1)CN(c1ccccc1NC(=O)Nc1ccc(OC(F)(F)F)cc1)c1ccccc12 | 54.2 µM | 5.8 µM
CC(C)(C)CN1CCCC2(C1)CN(c1ccccc1NC(=O)Nc1ccc(OC(F)(F)F)cc1)c1ccccc12 (stereo not drawn) | > 40 µM | –
CC(C)(C)CN1CCC2(CC1)CN(c1ccccc1NC(=O)Nc1ccc(OC(F)(F)F)cc1)c1cnccc12 | 4 µM | –
O=C(Nc1ccc(OC(F)(F)F)cc1)Nc1ccccc1N1CC2(CCC2)c2ccccc21 | – | 4.1 µM
CC(C)(C)CN1CCC2(CC1)CCN(c1ccccc1NC(=O)Nc1ccc(OC(F)(F)F)cc1)c1ccccc12 | 6.3 µM | –
CC1(C)CN(c2ccccc2NC(=O)Nc2ccc(OC(F)(F)F)cc2)c2ccccc21 | – | 8.5 µM
CC1(C)CCN(c2ccccc2NC(=O)Nc2ccc(OC(F)(F)F)cc2)c2ccccc21 | – | 2.2 µM
O=C(Nc1ccc(OC(F)(F)F)cc1)Nc1ccccc1N1CC2(CCCC2)c2ccccc21 | – | 2.4 µM
O=C(Nc1ccc(OC(F)(F)F)cc1)Nc1ccccc1N1CC2(CCN(C(=O)OCc3ccccc3)CC2)c2ccccc21 | – | > 10 µM
O=C(Nc1ccc(OC(F)(F)F)cc1)Nc1ccccc1N1CC2(CCCCC2)c2ccccc21 | – | 2 µM
CC(C)(C)CN1CCC2(CC1)CN(c1ccccc1NC(=O)Nc1ccc(OC(F)(F)F)cc1)c1ccccc12 | 4.9 µM | 0.67 µM
O=C(Nc1ccc(OC(F)(F)F)cc1)Nc1ccccc1N1CC2(CC2)c2ccccc21 | – | > 10 µM
CC1(C)CN(c2ccccc2NC(=O)Nc2ccc(OC(F)(F)F)cc2)c2ccccc2O1 | – | > 10 µM
O=C(Nc1ccc(OC(F)(F)F)cc1)Nc1ccccc1N1CCOc2ccccc21 | – | > 10 µM
CC1CCN(c2ccccc2NC(=O)Nc2ccc(OC(F)(F)F)cc2)c2ccccc21 (stereo not drawn) | – | > 10 µM
O=C(Nc1ccc(OC(F)(F)F)cc1)Nc1ccccc1N1CCCc2ccccc21 | – | > 10 µM

— BindingDB's records for doi:10.1021/jm4013906 (Bristol-Myers Squibb, 2013)
